Earlier results on 1 compound are cited in PMC8536644, “Enigmatic mechanism of the N-vinylpyrrolidone hepatocarcinogenicity in the rat” (Archives of Toxicology, 2021).

The subject of the series is CYP2B. To be noted: ref Waxmann [1999]; Lubet et al. [1985]; Tompkins and Wallac [2007]; cited from earlier work.

With `CCC1(c2ccccc2)C(=O)NC(=O)NC1=O` [phenobarbital], the “Increase of hepatic PROD activities” value was 50 to 140 fold.
